The results in this text go back to article PMC10297291 (2023).

In assay [1] the test system is G4 (DNA, G4) AGGGTTAGGGTTAGGGTTAGGG
In words: thiazole orange displacement (G4-FID), kinetics. The following applies: 10 mM K+, 90 mM Li+; 10 mM lithium cacodylate pH 7.2; 1 µM TO displaced, 0.25 µM DNA; resveratrol concentration not stated.

The subject of assay [2] is ds26 (DNA, duplex) CAATCGGATCGAATTCGATCCGATTG
The experiment in a line: thiazole orange displacement (G4-FID), fluorescence. The following applies: 10 mM K+, 90 mM Li+, 10 mM lithium cacodylate pH 7.2, 1 µM TO displaced, 0.25 µM DNA, 3 min equilibration.

The subject of assay [3] is G4 (DNA, G4) AGGGTTAGGGTTAGGGTTAGGG
The description is as above. The following applies: 10 mM K+, 90 mM Li+, 10 mM lithium cacodylate pH 7.2, 1 µM TO displaced, 0.25 µM DNA, 3 min equilibration.

Molecules are shown by their SMILES.

As to `Oc1ccc(/C=C/c2cc(O)cc(O)c2)cc1`, the binding result in assay [1] is listed as “no”.
Take `O=c1c(O)c(-c2ccc(O)c(O)c2)oc2cc(O)cc(O)c12`: the binding result in assay [2] (positive control) and in assay [3] (positive control) was “yes” throughout.
Consider `O=c1cc(-c2ccccc2)oc2cc(O)cc(O)c12`, for which the TO shift in assay [2] (highest concentrations) and in assay [3] (highest concentrations) was below 20% throughout.
